Reference: ChEMBL document CHEMBL3351506, “Synthesis and antiproliferative activity of conjugates of adenosine with muramyl dipeptide and nor-muramyl dipeptide derivatives” (Bioorg Med Chem Lett, 2014)
pEC50, pIC50: −log10 of the molar value.

What was measured:
L1210 [1] = assay: Cytotoxicity against mouse L1210 cells assessed as inhibition of cell viability after 72 hrs by MTT assay relative to control; type: functional; design: concentration or dose not given beside the values; settings: values are per cent of control
L1210 [2] = assay: Antitumor activity against mouse L1210 cells assessed as inhibition of [3H]thymidine incorporation after 72 hrs; type: functional, cell-based
[3] = Cytotoxicity against human PBMC assessed as inhibition of cell viability at 0.25 mg/ml after 72 hrs by MTT assay; type: cell-based; settings: PBMC (peripheral blood mononuclear cells), read-out: INH
PBMC = assay: Cytotoxicity against human PBMC assessed as inhibition of cell viability after 72 hrs by MTT assay; type: cell-based
L1210 [4] = assay: Ratio of IC50 for mouse L1210 cells by MTT assay to EC50 for mouse L1210 cells by [3H]thymidine incorporation assay; type: functional
L1210 [5] = assay: Antitumor activity against mouse L1210 cells assessed as inhibition of [3H]thymidine incorporation at 0.25 mg/ml after 72 hrs relative to control; type: functional
L1210 [6] = assay: Cytotoxicity against mouse L1210 cells assessed as inhibition of cell viability after 72 hrs by MTT assay; type: functional, cell-based; settings: L1210, 72 h
L1210 [7] = assay: Antitumor activity against mouse L1210 cells assessed as inhibition of [3H]thymidine incorporation at 0.5 mg/ml after 72 hrs relative to control; type: functional; settings: values are per cent of control
[8] = Cytotoxicity against human PBMC assessed as inhibition of cell viability at 0.5 mg/ml after 72 hrs by MTT assay; type: cell-based; settings: PBMC (peripheral blood mononuclear cells), read-out: INH
L1210 [9] = assay: Antitumor activity against mouse L1210 cells assessed as inhibition of [3H]thymidine incorporation at 0.215 mg/ml after 72 hrs relative to control; type: functional
[10] = Cytotoxicity against human PBMC assessed as inhibition of cell viability at 0.21 mg/ml after 72 hrs by MTT assay; type: cell-based; settings: PBMC (peripheral blood mononuclear cells), read-out: INH
L1210 [11] = assay: Cytotoxicity against mouse L1210 cells assessed as inhibition of cell viability at 0.5 mg/ml after 72 hrs by MTT assay; type: functional; settings: L1210, 72 h

Row | Compound | pEC50 (L1210 [2]) | viability, % of control (L1210 [1]) [%] | cytotoxicity at 72 h, 0.25 mg/ml [3] [%] | pIC50 (PBMC) | Ratio IC50/EC50 (L1210 [4]) | inhibition at 250 µg/mL (L1210 [5]) [%] | pIC50 (L1210 [6]) | growth, % of control at 500 µg/mL (L1210 [7]) [%] | cytotoxicity at 72 h, 0.5 mg/ml [8] [%] | inhibition at 215 µg/mL (L1210 [9]) [%] | cytotoxicity at 72 h, 0.21 mg/ml [10] [%] | inhibition at 500 µg/mL (L1210 [11]) [%]
1 | CC(=O)N[C@H]1[C@@H](OCc2ccccc2)O[C@H](CO)[C@@H](O)[C@@H]1OCC(=O)N[C@H](C)C(=O)N[C@H](CCC(=O)O)C(N)=O | 3.44 | 19.97 | – | 3.47 | 36.6 | – | 3.54 | 0.55 | – | – | – | –
2 | CC[C@@H](NC(=O)[C@@H](C)O[C@H]1[C@H](O)[C@@H](CO)O[C@H](OCc2ccccc2)[C@@H]1NC(C)=O)C(=O)N[C@H](CCC(=O)NCCNc1ncnc2c1ncn2[C@@H]1O[C@H](CO)[C@@H](O)[C@H]1O)C(N)=O | 3.35 | 29.01 | – | 3.36 | 33.8 | – | 3.66 | 0.86 | – | – | – | –
3 | CC(=O)N[C@H]1[C@@H](OCc2ccccc2)O[C@H](CO)[C@@H](O)[C@@H]1O[C@H](C)C(=O)N[C@@H](C(=O)N[C@H](CCC(=O)NCCNc1ncnc2c1ncn2[C@@H]1O[C@H](CO)[C@@H](O)[C@H]1O)C(N)=O)C(C)C | 3.34 | -0.87 | – | 3.63 | -0.3 | – | 3.79 | 2.9 | – | – | – | –
4 | CC(=O)N[C@H]1[C@@H](OCc2ccccc2)O[C@H](CO)[C@@H](O)[C@@H]1OCC(=O)N[C@H](C)C(=O)N[C@H](CCC(=O)NCCNc1ncnc2c1ncn2[C@@H]1O[C@H](CO)[C@@H](O)[C@H]1O)C(N)=O | 3.30 | 29.84 | – | 3.53 | 44.7 | – | 3.57 | 0.67 | – | – | – | –
5 | CC(=O)N[C@H]1[C@@H](OCc2ccccc2)O[C@H](CO)[C@@H](O)[C@@H]1OCC(=O)N1CCC[C@@H]1C(=O)N[C@H](CCC(=O)NCCNc1ncnc2c1ncn2[C@@H]1O[C@H](CO)[C@@H](O)[C@H]1O)C(N)=O | 3.29 | 52.99 | – | 3.55 | 8.7 | – | 3.25 | 6.1 | – | – | – | < 50
6 | CC(=O)N[C@H]1[C@@H](OCc2ccccc2)O[C@H](CO)[C@@H](O)[C@@H]1O[C@H](C)C(=O)N[C@H](C(=O)N[C@H](CCC(=O)NCCNc1ncnc2c1ncn2[C@@H]1O[C@H](CO)[C@@H](O)[C@H]1O)C(N)=O)C(C)C | 3.53 | 59.37 | – | 3.26 | 1.9 | – | 3.26 | 31.1 | < 50 | – | – | < 50
7 | CC(=O)N[C@H]1[C@@H](OCc2ccccc2)O[C@H](CO)[C@@H](O)[C@@H]1OCC(=O)N[C@@H](C)C(=O)N[C@H](CCC(=O)NCCCCCC(=O)Nc1ncnc2c1ncn2[C@@H]1O[C@H](CO)[C@@H](O)[C@H]1O)C(N)=O | 3.27 | 70.64 | – | 3.27 | 0.4 | – | 3.27 | 178 | < 50 | – | – | –
8 | Nc1ncnc2c1ncn2[C@@H]1O[C@H](CO)[C@@H](O)[C@H]1O [ADENOSINE] | 2.73 | 32.79 | – | 2.73 | 0.2 | – | 3.00 | 132 | < 50 | – | – | –

The remaining compounds from weak to strong by pEC50 (L1210 [2]), led by results:

Row | pEC50 (L1210 [2]) | Compound | viability, % of control (L1210 [1]) [%] | cytotoxicity at 72 h, 0.25 mg/ml [3] [%] | pIC50 (PBMC) | Ratio IC50/EC50 (L1210 [4]) | inhibition at 250 µg/mL (L1210 [5]) [%] | pIC50 (L1210 [6]) | growth, % of control at 500 µg/mL (L1210 [7]) [%] | cytotoxicity at 72 h, 0.5 mg/ml [8] [%] | inhibition at 215 µg/mL (L1210 [9]) [%] | cytotoxicity at 72 h, 0.21 mg/ml [10] [%] | inhibition at 500 µg/mL (L1210 [11]) [%]
9 | 2.99 | CC(=O)N[C@@H]1[C@@H](O[C@H](C)C(=O)N[C@H](C)C(=O)N[C@H](CCC(=O)O)C(N)=O)[C@H](O)[C@@H](CO)O[C@@H]1O | 64.93 | – | 2.99 | 0.4 | – | 2.99 | 146 | < 50 | – | – | –
10 | 3.27 | CC(=O)N[C@H]1[C@@H](OCc2ccccc2)O[C@H](CO)[C@@H](O)[C@@H]1OCC(=O)N[C@H](CO)C(=O)N[C@H](CCC(=O)NCCNc1ncnc2c1ncn2[C@@H]1O[C@H](CO)[C@@H](O)[C@H]1O)C(N)=O | 64.95 | – | 3.32 | 2.1 | – | 3.24 | 31.6 | – | – | – | –
11 | 3.28 | CC(=O)N[C@H]1[C@@H](OCc2ccccc2)O[C@H](CO)[C@@H](O)[C@@H]1O[C@H](C)C(=O)N[C@@H](C)C(=O)N[C@H](CCC(=O)NCCCCCC(=O)Nc1ncnc2c1ncn2[C@@H]1O[C@H](CO)[C@@H](O)[C@H]1O)C(N)=O | 65.58 | – | 3.28 | 0.3 | – | 3.28 | 192 | < 50 | – | – | –
12 | 3.29 | CC(=O)N[C@H]1[C@@H](OCc2ccccc2)O[C@H](CO)[C@@H](O)[C@@H]1O[C@H](C)C(=O)N[C@H](C)C(=O)N[C@H](CCC(=O)NCCNc1ncnc2c1ncn2[C@@H]1O[C@H](CO)[C@@H](O)[C@H]1O)C(N)=O | 35.91 | – | 3.41 | 3.7 | – | 3.54 | 9.75 | – | – | – | –
13 | 3.29 | CC(=O)N[C@H]1[C@@H](OCc2ccccc2)O[C@H](CO)[C@@H](O)[C@@H]1OCC(=O)N[C@@H](C(=O)N[C@H](CCC(=O)NCCNc1ncnc2c1ncn2[C@@H]1O[C@H](CO)[C@@H](O)[C@H]1O)C(N)=O)C(C)C | 31.65 | – | 3.25 | 2.6 | – | 3.55 | 12.3 | < 50 | – | – | –
14 | 3.29 | CC(=O)N[C@H]1[C@@H](OCc2ccccc2)O[C@H](CO)[C@@H](O)[C@@H]1O[C@H](C)C(=O)N1CCC[C@@H]1C(=O)N[C@H](CCC(=O)NCCNc1ncnc2c1ncn2[C@@H]1O[C@H](CO)[C@@H](O)[C@H]1O)C(N)=O | 43.1 | – | 3.57 | 9.3 | – | 3.51 | 4.65 | – | – | – | –
15 | 3.30 | CC[C@@H](NC(=O)CO[C@H]1[C@H](O)[C@@H](CO)O[C@H](OCc2ccccc2)[C@@H]1NC(C)=O)C(=O)N[C@H](CCC(=O)NCCNc1ncnc2c1ncn2[C@@H]1O[C@H](CO)[C@@H](O)[C@H]1O)C(N)=O | 53.6 | – | 3.33 | 19.6 | – | 3.24 | 2.73 | – | – | – | < 50
16 | 3.30 | CC(=O)N[C@H]1[C@@H](OCc2ccccc2)O[C@H](CO)[C@@H](O)[C@@H]1O[C@H](C)C(=O)N[C@H](CO)C(=O)N[C@H](CCC(=O)NCCNc1ncnc2c1ncn2[C@@H]1O[C@H](CO)[C@@H](O)[C@H]1O)C(N)=O | 28.09 | – | 3.49 | 5.5 | – | 3.66 | 5.14 | – | – | – | –
17 | 3.54 | CC(=O)N[C@H]1[C@@H](OCc2ccccc2)O[C@H](CO)[C@@H](O)[C@@H]1OCC(=O)N[C@H](CO)C(=O)N[C@H](CCC(=O)O)C(N)=O | 14.68 | – | 3.07 | 19.3 | – | 3.50 | 0.76 | < 50 | – | – | –
18 | 3.64 | CC(=O)N[C@H]1[C@@H](OCc2ccccc2)O[C@H](CO)[C@@H](O)[C@@H]1O[C@H](C)C(=O)N[C@@H](C(=O)N[C@H](CCC(=O)O)C(N)=O)C(C)C | 39.72 | < 50 | 3.61 | 47.9 | 0.83 | 3.58 | – | – | – | – | –
19 | 3.71 | CC(=O)N[C@H]1[C@@H](OCc2ccccc2)O[C@H](CO)[C@@H](O)[C@@H]1OCC(=O)N[C@@H](C(=O)N[C@H](CCC(=O)O)C(N)=O)C(C)C | 26.6 | – | 3.44 | 23.7 | – | 3.77 | – | < 50 | 1.12 | < 50 | –
